Target: methionyl-tRNA synthetase (Trypanosoma brucei brucei)
Test: inhibition of trypanosomal methionyl-tRNA synthetase – biochemical, luminescence, dose response, round 2, late-stage follow-up (AID 743300)
Conditions: T. brucei MetRS enzyme, luminescence read-out

- IC50: 99.5 nM
SMILES: CCN(CC)C(=O)C(=O)c1cn(CC(=O)Nc2cccc(C(F)(F)F)c2)c2ccccc12

— PubChem BioAssay AID743300 (The Scripps Research Institute Molecular Screening Center, 2014)
